Source: US11879021B2, “Cyclic peptides and uses thereof” (UNIVERSITÉ DE MONTRÉAL, priority 2016, dated 2024)

Experiments:
[1] = system: R-FSL-1 (TLR2 agonist)-induced NO production in RAW macrophage cell line; assay: Nitric oxide (NO) production induced by TLR2 agonist R-FSL-1 in RAW macrophage cell line; type: cell-based, murine; settings: RAW macrophages
Experimental: The murine RAW1 macrophage cell line was obtained from American Type Cell Collection (ATCC #TIB-71), seeded at 1.5×10^5 cells/well in Dulbecco's Modified Eagle's medium (DMEM) containing 100 U/mL of penicillin (Pen) and 100 μg/mL of streptomycin (Strep) on a 48-well plate (Costar® #3548), and incubated at 37° C. with 5% CO2. After 2 h, the cell culture medium of adhered cells was removed and replaced by DMEM-Pen/Strep medium containing 0.2% of bovine serum albumin (BSA), and supplemented with the cyclic peptides at a concentration of 10^−6 or 10^−7 M. MPE-001 (DBG178, His-D-Trp-Ala-AzaTyr-D-Phe-Lys-NH2) and [azaLys^6]-GHRP-6 (His-D-Trp-Ala-Trp-D-Phe-azaLys-NH2, negative control) at 10^−6 M were used as positive and negative controls, respectively. After 1 h pre-incubation, the cells were stimulated overnight using the TLR2 ligand fibroblast-stimulating lipopeptide (R-FSL-1) (Invivogen® #L7022) at a concentration of 300 ng/mL. Supernatants were then collected for nitrite production analysis by fluorescence using 2,3-diaminonaphthalene (DAN). Briefly, 25 μL of sample was incubated with 0.5 μg of DAN in a 100 μL final volume of phosphate buffer (50 mM, pH 7.5) at room temperature in the dark. After 15 min, the reaction was stopped with 20 μL of NaOH (2.8N) and the plate was read using a fluorescence plate reader (TECAN® Safire, λexc 365 nm and λem 430 nm).

[2] = system: R-FSL-1-induced IL-1β and TNF-α secretion in bone marrow-derived macrophages; assay: IL-1β and TNF-α secretion in bone marrow-derived macrophages (BMDM) stimulated with R-FSL-1; type: cell-based, mice; settings: murine BMDM primed with LPS, 10^−6 to 10^−11 M
Text: Bone marrow-derived macrophages isolation and purification. Bone marrow-derived macrophages (BMDM) were isolated from the tibia and femur of 4-month-old C57Bl/6 mice. Mice were euthanized in a CO2 chamber individually. Tibia and femur were dissected from dead mice after removing the skin and the muscles and stored in cold DMEM before use. The bones are placed in Petri dishes containing sterile PBS and immersed in ice. In a laminar flow of culture, bones are immersed in 70% ethanol for one minute, and then rinsed in sterile PBS. Bones were cut in 2 pieces using sterile forceps and scissors and put in pierced 0.6 mL tubes which were put in 2 mL centrifuge tubes containing 200 μL of DMEM. After 1 min of centrifugation at 6500 RPM, pellets of bone marrow cells were gently resuspended and pooled in a 50 mL tube. Cells were counted and monocytes were purified from the bone marrow cells using the EasySep™ Mouse Monocyte Isolation Kit (StemCell Technologies, #19861) according to the manufacturer instructions. […] Statistical significance of data was analyzed by analysis of variance (ANOVA) with post-hoc comparisons using Dunnett's test with statistical software package (Graph Pad Prism version 7.0). […]

[3] = system: R-FSL-1 (TLR2 agonist)-induced TNF-α and CCL-2 release in RAW macrophages; assay: R-FSL-1-induced TNF-α and CCL-2 release in RAW macrophages; type: cell-based, murine; settings: 10^−7 M
Experimental: The murine RAW1 macrophage cell line was obtained from American Type Cell Collection (ATCC #TIB-71). RAW cells were seeded at 150,000 cells per well in a 48-well plate (Costar® #3548) and weaned overnight in medium (DMEM supplemented 1% penicillin/streptomycin) at 37° C. with 5% CO2. The next day, the medium was changed to DMEM-1% penicillin/streptomycin supplemented with 0.2% BSA. The cells were first pretreated with 300 μL of azapeptides DBG178 (MPE-133, reference standard), 25 (MPE-210), 26 (MPE-266), 28 (MPE-268), 32 (MPE-267), 33 (MPE-298), 38 (MPE-308), 35 (MPE-300), 39 (MPE-310) and azaLys6-GHRP-6 (as negative control) at 10^-7M for 30 min. Then, […] of the TLR2 agonist, R-FSL-1 (300 ng/ml final concentration, R-FSL-1, Invivogen® #L7022) was added for 4 h period of incubation at 37° C. with 5% CO2. At the end of the incubation period, media were collected and stored at −80° C. for TNF-α and CCL-2 assays using ELISA kits (EbioScience® #88-7391 and #88-7324). Results were analyzed by analysis of variance (ANOVA) with post hoc comparisons using Dunnett's test with a statistical software package (Graph Pad Prism® version 7.0). P<0.05 was considered statistically significant.

C=CCN1CC#CCN(NC(=O)[C@H](C)N)C(=O)N[C@H](Cc2c[nH]c3ccccc23)C(=O)N[C@@H](C)C(=O)N[C@@H](Cc2c[nH]c3ccccc23)C(=O)N[C@H](Cc2ccccc2)C(=O)N[C@H](C(N)=O)CCCC1 [MPE-298]
suppression of NO production compared with positive control MPE-001 at the same concentration ([1]; 10^−7 M, FIG. 4F): more important | suppression of R-FSL-1-mediated NO production at 10^−7 M ([1]; 10^−7 M, further analyses, FIG. 4F): significant suppression | suppression of R-FSL-1-mediated NO production ([1]; at the concentration tested (10^−6 or 10^−7 M), FIGS. 4A to 4F): significant suppression | secretion of IL-1β induced by R-FSL-1 [2]: able to inhibit | secretion of TNF-α induced by R-FSL-1 [2]: able to inhibit | effect on R-FSL-1-induced CCL-2 release [3]: significant inhibitory effect | effect on R-FSL-1-induced TNF-α release [3]: significant inhibitory effect
